Our source for the IC50 values is patent US12247010B2, “Tubulin inhibitors” (LIN BIOSCIENCE PTY LTD., priority 2017, dated 2025).

Some results are limits rather than exact numbers.

The subject of this test is U87MG cells. In words: Cytotoxicity assay (cell viability, CellTiter 96 Aqueous MTS). The test is classed as cell-based. The settings on record: Homo sapiens, U-87 MG, 72 h, 72 hours incubation, starting concentration 50 uM, 9 point half log dilution, average where tested repeatedly. Here is the method: Example 3: Cytotoxicity Assay
U87MG cells were plated at a density of 7×10^3 cells/well and allowed to seed overnight. Cells were then treated with compounds from Table 1 or CMPD-1 (4-(2′-fluoro-[1,1′-biphenyl]-4-yl)-N-(4-hydroxyphenyl)butanamide as a positive control) were added to cells at a starting concentration of 50 uM, with a 9 point half log dilution, and incubated for 72 hours prior to viability determination. IC50 values were calculated from cell viability as measured using the CellTiter 96® Aqueous MTS reagent from Promega©, and the results are shown in Table 2.
By IC50 is commonly meant the concentration needed to halve the response being measured. Low readings indicate inhibition by little substance, high ones a need for much substance. Turning to `Cn1ncc2cc(-c3ccc(CCCC(=O)Nc4cccnc4)cc3)ccc21` [Compound 148, 4-(4-(1-methyl-1H-indazol-5-yl)phenyl)-N-(pyridin-3-yl)butanamide], the 50% inhibitory concentration (IC50) is below 0.5 µM.

Take `O=C(CCCc1ccc(-c2cccc(F)c2F)cc1)Nc1cccnc1` [Compound 149, 4-(2′,3′-difluoro-[1,1′-biphenyl]-4-yl)-N-(pyridin-3-yl)butanamide]: the IC50 was in the range of 0.501 to 1 µM.

As to `O=C(CCCc1ccc(-c2ccccc2)cc1)Nc1cccnc1` [Compound 151, 4-([1,1′-biphenyl]-4-yl)-N-(pyridin-3-yl)butanamide], the IC50 lay within 1 to 5 µM.

Compound `Cc1ccccc1-c1ccc(CCCC(=O)Nc2cccnc2)cc1` [Compound 152, 4-(2′-methyl-[1,1′-biphenyl]-4-yl)-N-(pyridin-3-yl)butanamide] had an IC50 above 5 µM.

In the case of `Cc1ccc(-c2ccc(CCCC(=O)Nc3cccnc3)cc2)cn1` [Compound 153, 4-(4-(6-methylpyridin-3-yl)phenyl)-N-(pyridin-3-yl)butanamide], the IC50 is above 5 µM.

In turn, `O=C(CCCc1ccc(-c2ccccc2OC(F)(F)F)cc1)Nc1cccnc1` [Compound 154, N-(pyridin-3-yl)-4-(2′-(trifluoromethoxy)-[1,1′-biphenyl]-4-yl)butanamide] gave an IC50 of 1 to 5 µM.

On to `O=C(CCCc1ccc(-c2ccc(C(F)(F)F)nc2)cc1)Nc1cccnc1` [Compound 155, N-(pyridin-3-yl)-4-(4-(6-(trifluoromethyl)pyridin-3-yl)phenyl)butanamide], for which the IC50 was 0.501 to 1 µM.

In turn, `Cc1cc(-c2ccc(CCCC(=O)Nc3cccnc3)cc2)ccn1` [Compound 156, 4-(4-(2-methylpyridin-4-yl)phenyl)-N-(pyridin-3-yl)butanamide] returned an IC50 above 5 µM.

`O=C(CCCc1ccc(-c2ccc(F)cc2F)cc1)Nc1cccnc1` [Compound 157, 4-(2′,4′-difluoro-[1,1′-biphenyl]-4-yl)-N-(pyridin-3-yl)butanamide] showed an IC50 of 1 to 5 µM.

As to `O=C(CCCc1ccc(-c2cccnc2)cc1)Nc1cccnc1` [Compound 158, N-(pyridin-3-yl)-4-(4-(pyridin-3-yl)phenyl)butanamide], the IC50 was above 5 µM.

`O=C(CCCc1ccc(-c2c(F)cccc2F)cc1)Nc1cccnc1` [Compound 159, 4-(2′,6′-difluoro-[1,1′-biphenyl]-4-yl)-N-(pyridin-3-yl)butanamide] showed an IC50 of 1 to 5 µM.

`O=C(CCCc1ccc(-c2ccccc2Cl)cc1)Nc1cccnc1` [Compound 160, 4-(2′-chloro-[1,1′-biphenyl]-4-yl)-N-(pyridin-3-yl)butanamide] yielded an IC50 of 1 to 5 µM.

On to `O=C(CCCc1ccc(-c2ccc3nonc3c2)cc1)Nc1cccnc1` [Compound 161, 4-(4-(benzo[c][1,2,5]oxadiazol-5-yl)phenyl)-N-(pyridin-3-yl)butanamide], for which the IC50 was above 5 µM.

`O=C(CCCc1ccc(-c2ccc3c(c2)OCCO3)cc1)Nc1cccnc1` [Compound 162, 4-(4-(2,3-dihydrobenzo[b][1,4]dioxin-6-yl)phenyl)-N-(pyridin-3-yl)butanamide] yielded an IC50 of 0.501 to 1 µM.

`O=C(CCCc1ccc(-c2ccc3ncccc3c2)cc1)Nc1cccnc1` [Compound 163, N-(pyridin-3-yl)-4-(4-(quinolin-6-yl)phenyl)butanamide] showed an IC50 below 0.5 µM.

`Cn1cc2cc(-c3ccc(CCCC(=O)Nc4cccnc4)cc3)ccc2n1` [Compound 164, 4-(4-(2-methyl-2H-indazol-5-yl)phenyl)-N-(pyridin-3-yl)butanamide]: the IC50 is 0.501 to 1 µM.

`Cn1cc2c(-c3ccc(CCCC(=O)Nc4cccnc4)cc3)cccc2n1` [Compound 165, 4-(4-(2-methyl-2H-indazol-4-yl)phenyl)-N-(pyridin-3-yl)butanamide]: the IC50 fell in the range of 1 to 5 µM.

Consider `Cn1ncc2ccc(-c3ccc(CCCC(=O)Nc4cccnc4)cc3)cc21` [Compound 166, 4-(4-(1-methyl-1H-indazol-6-yl)phenyl)-N-(pyridin-3-yl)butanamide], for which the IC50 was in the range of 1 to 5 µM.

On to `COc1ccc(-c2ccc(CCCC(=O)Nc3cccnc3)cc2)cn1` [Compound 167, 4-(4-(6-methoxypyridin-3-yl)phenyl)-N-(pyridin-3-yl)butanamide], for which the IC50 was above 5 µM.

In turn, `COc1ccc(-c2ccc(CCCC(=O)Nc3cccnc3)cc2)cc1OC` [Compound 168, 4-(3′,4′-dimethoxy-[1,1′-biphenyl]-4-yl)-N-(pyridin-3-yl)butanamide] registered an IC50 of 1 to 5 µM.

The compound `Cn1ccc2cc(-c3ccc(CCCC(=O)Nc4cccnc4)cc3)ccc21` [Compound 169, 4-(4-(1-methyl-1H-indol-5-yl)phenyl)-N-(pyridin-3-yl)butanamide] showed an IC50 of 0.501 to 1 µM.

In turn, `O=C(CCCc1ccc(-c2ccc3ocnc3c2)cc1)Nc1cccnc1` [Compound 173, 4-(4-(benzo[d]oxazol-5-yl)phenyl)-N-(pyridin-3-yl)butanamide] registered an IC50 of 0.501 to 1 µM.

In turn, `COc1ccc(F)c(-c2ccc(CCCC(=O)Nc3cccnc3)cc2)c1` [Compound 175, 4-(2′-fluoro-5′-methoxy-[1,1′-biphenyl]-4-yl)-N-(pyridin-3-yl)butanamide] yielded an IC50 of 0.501 to 1 µM.

`O=C(CCCc1ccc(-c2cn[nH]c2)cc1)Nc1cccnc1` [Compound 176, 4-(4-(1H-pyrazol-4-yl)phenyl)-N-(pyridin-3-yl)butanamide] gave an IC50 above 5 µM.

Regarding `O=C(CCCc1ccc(-c2ccc3c(c2)NC(=O)C3)cc1)Nc1cccnc1` [Compound 177, 4-(4-(2-oxoindolin-6-yl)phenyl)-N-(pyridin-3-yl)butanamide], the IC50 fell in the range of 0.501 to 1 µM.

On to `COc1ncccc1-c1ccc(CCCC(=O)Nc2cccnc2)cc1` [Compound 178, 4-(4-(2-methoxypyridin-3-yl)phenyl)-N-(pyridin-3-yl)butanamide], for which the IC50 is above 5 µM.

As to `O=C(CCCc1ccc(-c2cc(Cl)ccc2F)cc1)Nc1cccnc1` [Compound 179, 4-(5′-chloro-2′-fluoro-[1,1′-biphenyl]-4-yl)-N-(pyridin-3-yl)butanamide], the IC50 is above 5 µM.

As to `Cc1c(-c2ccc(CCCC(=O)Nc3cccnc3)cc2)ccc2[nH]ncc12` [Compound 180, 4-(4-(4-methyl-1H-indazol-5-yl)phenyl)-N-(pyridin-3-yl)butanamide], the IC50 is below 0.5 µM.

For `O=C(CCCc1ccc(-c2cnc3[nH]ccc3c2)cc1)Nc1cccnc1` [Compound 181, 4-(4-(1H-pyrrolo[2,3-b]pyridin-5-yl)phenyl)-N-(pyridin-3-yl)butanamide], the IC50 was below 0.5 µM.

As to `O=C(CCCc1ccc(-c2cnc3ccccc3c2)cc1)Nc1cccnc1` [Compound 183, N-(pyridin-3-yl)-4-(4-(quinolin-3-yl)phenyl)butanamide], the IC50 was 1 to 5 µM.

The compound `COc1cccc(-c2ccc(CCCC(=O)Nc3cccnc3)cc2)c1F` [Compound 184, 4-(2′-fluoro-3′-methoxy-[1,1′-biphenyl]-4-yl)-N-(pyridin-3-yl)butanamide] had an IC50 below 0.5 µM.

`O=C(CCCc1cccc(-n2cccn2)c1)Nc1cccnc1` [Compound 185, 4-(3-(1H-pyrazol-1-yl)phenyl)-N-(pyridin-3-yl)butanamide] came in with an IC50 above 5 µM.

Consider `O=C(CCCc1ccc(Cc2ccccc2)cc1)Nc1cccnc1` [Compound 186, 4-(4-benzylphenyl)-N-(pyridin-3-yl)butanamide], for which the IC50 is above 5 µM.

In turn, `O=C(CCCc1ccc(-c2ccc(C(F)(F)F)cc2F)cc1)Nc1cccnc1` [Compound 189, 4-(2′-fluoro-4′-(trifluoromethyl)-[1,1′-biphenyl]-4-yl)-N-(pyridin-3-yl)butanamide] displayed an IC50 of 1 to 5 µM.

Turning to `O=C(CCCc1ccc(-c2cc3cccnc3cc2F)cc1)Nc1cccnc1` [Compound 190, 4-(4-(7-fluoroquinolin-6-yl)phenyl)-N-(pyridin-3-yl)butanamide], the IC50 is below 0.5 µM.

`Cc1nn(C)c2ccc(-c3ccc(CCCC(=O)Nc4cccnc4)cc3)cc12` [Compound 191, 4-(4-(1,3-dimethyl-1H-indazol-5-yl)phenyl)-N-(pyridin-3-yl)butanamide] yielded an IC50 of 1 to 5 µM.

In turn, `O=C(CCCc1ccc(-c2ccc3nccnc3c2)cc1)Nc1cccnc1` [Compound 192, N-(pyridin-3-yl)-4-(4-(quinoxalin-6-yl)phenyl)butanamide] yielded an IC50 of 1 to 5 µM.

For the compound `O=C(CCCc1ccc(-c2cnn(Cc3ccccc3)c2)cc1)Nc1cccnc1` [Compound 193, 4-(4-(1-benzyl-1H-pyrazol-4-yl)phenyl)-N-(pyridin-3-yl)butanamide], the IC50 is above 5 µM.

For the compound `O=C(CCCc1ccc(-c2ccc3[nH]cnc3c2)cc1)Nc1cccnc1` [Compound 195, 4-(4-(1H-benzo[d]imidazol-5-yl)phenyl)-N-(pyridin-3-yl)butanamide], the IC50 fell in the range of 0.501 to 1 µM.

On to `O=C(CCCc1ccc(-c2ccc3c(c2)CCC(=O)N3)cc1)Nc1cccnc1` [Compound 196, 4-(4-(2-oxo-1,2,3,4-tetrahydroquinolin-6-yl)phenyl)-N-(pyridin-3-yl)butanamide], for which the IC50 was below 0.5 µM.

`O=C(CCCc1ccc(-c2ccc3nccn3c2)cc1)Nc1cccnc1` [Compound 197, 4-(4-(imidazo[1,2-a]pyridin-6-yl)phenyl)-N-(pyridin-3-yl)butanamide]: the IC50 is above 5 µM.

`O=C(CCCc1ccc(-c2ccc(-n3cccn3)cc2)cc1)Nc1cccnc1` [Compound 198, 4-(4′-(1H-pyrazol-1-yl)-[1,1′-biphenyl]-4-yl)-N-(pyridin-3-yl)butanamide] yielded an IC50 of 0.501 to 1 µM.

Turning to `Cc1ccc2cc(-c3ccc(CCCC(=O)Nc4cccnc4)cc3)ccc2n1` [Compound 199, 4-(4-(2-methylquinolin-6-yl)phenyl)-N-(pyridin-3-yl)butanamide], the IC50 fell in the range of 0.501 to 1 µM.

`O=C(CCCc1ccc(-c2cc(C(=O)N3CCOCC3)ccc2F)cc1)Nc1cccnc1` [Compound 200, 4-(2′-fluoro-5′-(morpholine-4-carbonyl)-[1,1′-biphenyl]-4-yl)-N-(pyridin-3-yl)butanamide] registered an IC50 above 5 µM.
